Source: ChEMBL document CHEMBL1201862, “PubChem BioAssay data set” (2004)
Calls of active or inactive are those of the source. Rule as the data show it, for most assays here: actives have a measured EC50 and inactives only a lower limit.

Experiments:
Procathepsin L = Procathepsin L (Homo sapiens, UniProt P07711); test: CTSL1 protease inhibition – biochemical, QFRET, 1536-well, counter-screen for M1/M17 aminopeptidase inhibitor project, dose response (AID 2214)
Aspartyl aminopeptidase = Aspartyl aminopeptidase (Plasmodium falciparum 3D7, UniProt Q8I2J3); test: Counterscreen for inhibitors of M1 and M17 aminopeptidases: QFRET-based biochemical high throughput dose response assay for inhibitors of the Plasmodium falciparum M18 Aspartyl Aminopeptidase (PFM18AAP). [Related PubChem assays: 1619 (Screening assay (M17LAP inhibitors).), 1445 (Screening assay (M1AAP inhibitors).)]
Sequence of Aspartyl aminopeptidase (Q8I2J3 whole entry): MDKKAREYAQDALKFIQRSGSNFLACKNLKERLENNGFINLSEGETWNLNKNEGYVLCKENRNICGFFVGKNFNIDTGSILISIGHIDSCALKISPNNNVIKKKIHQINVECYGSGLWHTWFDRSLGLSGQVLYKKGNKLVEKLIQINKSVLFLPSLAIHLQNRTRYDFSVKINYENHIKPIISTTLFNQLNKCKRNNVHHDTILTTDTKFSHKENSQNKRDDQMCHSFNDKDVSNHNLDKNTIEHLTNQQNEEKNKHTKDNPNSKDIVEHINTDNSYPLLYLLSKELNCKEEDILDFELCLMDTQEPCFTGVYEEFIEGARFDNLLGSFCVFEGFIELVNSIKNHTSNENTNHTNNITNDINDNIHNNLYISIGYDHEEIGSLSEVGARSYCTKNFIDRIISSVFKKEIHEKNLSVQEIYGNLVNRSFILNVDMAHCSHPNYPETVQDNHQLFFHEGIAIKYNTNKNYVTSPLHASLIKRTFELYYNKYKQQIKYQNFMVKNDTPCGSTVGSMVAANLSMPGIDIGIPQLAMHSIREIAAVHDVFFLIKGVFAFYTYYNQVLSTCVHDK

Aminopeptidase N = target: T1, Aminopeptidase N (Plasmodium falciparum FcB1/Columbia, UniProt O96935); test: malaria alanyl aminopeptidase activity blockers – biochemical, fluorogenic H-Leu-NHMec substrate, 1536-well (AID 1445); parameters: species or system Plasmodium falciparum 3D7, 3D7
T1 sequence (O96935 whole entry): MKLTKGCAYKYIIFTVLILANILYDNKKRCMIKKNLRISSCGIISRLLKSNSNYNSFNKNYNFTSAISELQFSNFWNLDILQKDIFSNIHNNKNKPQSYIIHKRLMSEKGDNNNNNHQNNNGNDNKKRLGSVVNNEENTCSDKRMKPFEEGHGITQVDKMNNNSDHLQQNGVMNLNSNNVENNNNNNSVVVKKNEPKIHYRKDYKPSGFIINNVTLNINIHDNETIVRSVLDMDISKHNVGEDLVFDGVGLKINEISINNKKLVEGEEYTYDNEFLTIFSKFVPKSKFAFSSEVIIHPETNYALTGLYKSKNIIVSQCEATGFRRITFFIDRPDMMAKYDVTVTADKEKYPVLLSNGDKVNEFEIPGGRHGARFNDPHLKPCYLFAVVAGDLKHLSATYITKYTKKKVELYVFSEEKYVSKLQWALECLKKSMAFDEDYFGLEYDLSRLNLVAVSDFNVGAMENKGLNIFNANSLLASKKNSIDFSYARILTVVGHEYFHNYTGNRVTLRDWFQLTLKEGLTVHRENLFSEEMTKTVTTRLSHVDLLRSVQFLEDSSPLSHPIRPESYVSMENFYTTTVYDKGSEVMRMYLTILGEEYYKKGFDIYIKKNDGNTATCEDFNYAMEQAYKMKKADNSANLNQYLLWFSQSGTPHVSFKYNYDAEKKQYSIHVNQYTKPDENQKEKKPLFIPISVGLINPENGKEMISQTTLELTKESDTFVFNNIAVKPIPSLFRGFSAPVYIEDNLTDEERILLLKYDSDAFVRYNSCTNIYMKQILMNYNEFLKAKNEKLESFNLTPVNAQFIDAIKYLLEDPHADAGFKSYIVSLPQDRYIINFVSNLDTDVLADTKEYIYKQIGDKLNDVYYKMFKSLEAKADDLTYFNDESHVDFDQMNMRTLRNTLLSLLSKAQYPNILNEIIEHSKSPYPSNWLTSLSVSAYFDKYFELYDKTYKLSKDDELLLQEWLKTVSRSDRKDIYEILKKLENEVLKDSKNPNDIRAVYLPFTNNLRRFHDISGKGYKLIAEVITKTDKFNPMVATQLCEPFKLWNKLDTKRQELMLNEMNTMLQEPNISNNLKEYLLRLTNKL

[1] = target: Sphingosine 1-phosphate receptor 2 (Homo sapiens, UniProt O95136); test: Dose Response Cell Based Assay for Agonists of the S1P2 Receptor of Purchased Analogues. [Related pubchem assays: 729, 843, 854, 736 ]; assay type: functional
Sequence of Sphingosine 1-phosphate receptor 2 (O95136 whole entry): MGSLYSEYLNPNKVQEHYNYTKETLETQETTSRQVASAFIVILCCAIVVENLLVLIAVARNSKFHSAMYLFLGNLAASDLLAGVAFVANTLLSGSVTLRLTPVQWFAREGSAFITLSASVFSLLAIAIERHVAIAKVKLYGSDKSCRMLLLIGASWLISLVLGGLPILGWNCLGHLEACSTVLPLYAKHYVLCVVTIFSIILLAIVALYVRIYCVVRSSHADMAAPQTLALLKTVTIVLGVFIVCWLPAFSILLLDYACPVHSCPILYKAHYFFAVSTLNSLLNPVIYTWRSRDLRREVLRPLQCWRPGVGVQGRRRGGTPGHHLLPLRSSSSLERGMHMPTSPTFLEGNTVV

NADPH oxidase 1 [2] = target: T2, NADPH oxidase 1 (Homo sapiens, UniProt Q9Y5S8); test: Late-stage luminescence-based cell-based dose response assay to identify inhibitors of NADPH oxidase 1 (NOX1): Purchased analogs 2.; assay type: functional
T2 sequence (Q9Y5S8 whole entry): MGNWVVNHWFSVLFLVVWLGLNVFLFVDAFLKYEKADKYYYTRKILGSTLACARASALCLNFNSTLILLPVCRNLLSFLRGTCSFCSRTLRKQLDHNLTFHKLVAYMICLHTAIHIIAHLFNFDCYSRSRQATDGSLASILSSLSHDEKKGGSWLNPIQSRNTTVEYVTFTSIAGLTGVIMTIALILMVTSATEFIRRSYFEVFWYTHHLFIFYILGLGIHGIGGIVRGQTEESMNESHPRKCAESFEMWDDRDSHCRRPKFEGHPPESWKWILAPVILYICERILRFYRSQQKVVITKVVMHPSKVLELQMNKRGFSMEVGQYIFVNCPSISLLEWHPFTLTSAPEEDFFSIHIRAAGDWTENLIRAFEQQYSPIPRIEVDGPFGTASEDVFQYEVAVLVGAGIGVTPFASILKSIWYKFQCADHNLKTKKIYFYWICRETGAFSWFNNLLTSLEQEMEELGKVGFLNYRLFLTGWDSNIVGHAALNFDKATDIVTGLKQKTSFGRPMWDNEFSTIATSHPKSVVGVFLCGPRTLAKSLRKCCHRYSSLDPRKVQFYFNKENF

[3] = target: T3, Neuropeptide Y receptor type 1 (Homo sapiens, UniProt P25929); assay type: functional;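 also: HEK293 cells with a CNG channel challenged with NPY then isoproterenol; potency as antagonist that reverses NPY suppression of cAMP signal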
T3 sequence (P25929 whole entry): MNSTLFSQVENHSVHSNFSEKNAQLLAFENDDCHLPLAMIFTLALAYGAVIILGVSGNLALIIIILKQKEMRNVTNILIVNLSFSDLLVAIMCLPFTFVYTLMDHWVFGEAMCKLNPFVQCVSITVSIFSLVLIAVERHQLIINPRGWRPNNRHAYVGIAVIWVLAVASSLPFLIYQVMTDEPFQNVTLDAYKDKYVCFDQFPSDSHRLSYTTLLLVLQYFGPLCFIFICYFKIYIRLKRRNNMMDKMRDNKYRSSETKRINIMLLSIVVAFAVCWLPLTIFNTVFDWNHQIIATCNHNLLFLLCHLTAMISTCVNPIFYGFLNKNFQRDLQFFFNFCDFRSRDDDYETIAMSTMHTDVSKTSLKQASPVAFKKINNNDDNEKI

[4] = target: T4, Neuropeptide Y receptor type 2 (Homo sapiens, UniProt P49146); assay type: functional, cell-based;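 also: HEK293 cells expressing the receptor and a CNG channel; stimulus was NPY near EC95 followed by isoproterenol to raise cAMP; antagonist potency measured as restoring cAMP signal that NPY suppresses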
T4 sequence (P49146 whole entry): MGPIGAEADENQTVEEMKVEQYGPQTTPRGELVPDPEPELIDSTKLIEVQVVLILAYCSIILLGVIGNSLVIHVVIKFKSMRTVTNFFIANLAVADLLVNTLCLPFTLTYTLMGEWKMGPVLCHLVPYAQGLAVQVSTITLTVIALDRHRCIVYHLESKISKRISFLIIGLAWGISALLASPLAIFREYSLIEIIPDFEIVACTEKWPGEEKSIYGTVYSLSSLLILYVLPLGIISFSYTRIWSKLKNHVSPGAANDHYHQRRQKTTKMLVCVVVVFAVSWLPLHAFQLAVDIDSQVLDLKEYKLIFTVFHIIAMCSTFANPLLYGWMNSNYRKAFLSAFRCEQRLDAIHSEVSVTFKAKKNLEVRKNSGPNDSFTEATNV

[5] = alpha-synuclein stem-loop luciferase translation blockers – H4 neuroglioma cells, luminescence, confirmation (AID 1988); assay type: functional, cell-based
HT-1080 = test: HT1080 cell viability loss – fluorescence readout (AID 620); assay type: functional, cell-based; settings: Homo sapiens
[6] = target: Luciferin 4-monooxygenase (Photinus pyralis, UniProt P08659); test: Counter Screen for Luciferase-based Assay Positives. [Related pubchem assays: 620, 618, 411 ]
Sequence of Luciferin 4-monooxygenase (P08659 whole entry): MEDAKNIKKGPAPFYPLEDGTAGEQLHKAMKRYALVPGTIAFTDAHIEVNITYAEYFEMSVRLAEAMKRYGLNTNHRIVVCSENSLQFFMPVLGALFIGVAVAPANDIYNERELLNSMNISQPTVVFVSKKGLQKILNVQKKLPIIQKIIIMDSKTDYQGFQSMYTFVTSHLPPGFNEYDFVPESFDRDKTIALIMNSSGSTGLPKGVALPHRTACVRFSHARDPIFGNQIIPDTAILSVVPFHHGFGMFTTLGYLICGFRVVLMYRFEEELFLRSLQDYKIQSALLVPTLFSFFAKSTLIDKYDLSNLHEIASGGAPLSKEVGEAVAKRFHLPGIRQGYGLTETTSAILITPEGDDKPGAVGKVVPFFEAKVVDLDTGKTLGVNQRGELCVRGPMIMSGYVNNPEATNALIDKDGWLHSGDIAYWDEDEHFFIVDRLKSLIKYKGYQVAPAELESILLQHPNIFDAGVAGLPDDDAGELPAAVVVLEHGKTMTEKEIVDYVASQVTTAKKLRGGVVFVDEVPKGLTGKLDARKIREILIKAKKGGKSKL

[7] = Luminescence Cell-Based Dose Response HTS to Identify Inhibitors of 5'UTR Stem-Loop Driven Prion Protein mRNA Translation in H4 Neuroglioblastoma Cells. [Related pubchem assays: 1827 (Project Summary), 1813 (Primary HTS)]; assay type: functional
[8] = Luminescence Cell-Based Dose Confirmation HTS to Identify Inhibitors of Polyadenylation.; assay type: functional
[9] = test system: Streptococcus sp. 'group A'; test: Streptococcus pyogenes SK(-)GAS viability under kanamycin – luminescence, BacTiterGlo, confirmation, counter-screen for streptokinase expression inhibitor project, dose response (AID 1900); assay type: functional, organism-based
Streptococcus = test: GAS UMAA2166 growth inhibition – luminescence, BacTiterGlo, counter-screen for streptokinase expression inhibitor project, dose response (AID 1915); assay type: functional, organism-based;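 also: potency for reduction of bacterial viability or growth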
[10] = viability loss of HPDE-C7K cells – cell-based, fluorescence, HTS, primary screen (AID 431); assay type: functional; settings: Homo sapiens
[11] = HPDE-C7 pancreatic duct cell viability loss – fluorescence, HTS (AID 430); assay type: functional, cell-based; settings: Homo sapiens
Estrogen receptor = target: T5, Estrogen receptor (Homo sapiens, UniProt P03372); test: ERα coactivator recruitment enhancers – biochemical, TR-FRET, ERα LBD, dose response (AID 737)
T5 sequence (P03372 whole entry): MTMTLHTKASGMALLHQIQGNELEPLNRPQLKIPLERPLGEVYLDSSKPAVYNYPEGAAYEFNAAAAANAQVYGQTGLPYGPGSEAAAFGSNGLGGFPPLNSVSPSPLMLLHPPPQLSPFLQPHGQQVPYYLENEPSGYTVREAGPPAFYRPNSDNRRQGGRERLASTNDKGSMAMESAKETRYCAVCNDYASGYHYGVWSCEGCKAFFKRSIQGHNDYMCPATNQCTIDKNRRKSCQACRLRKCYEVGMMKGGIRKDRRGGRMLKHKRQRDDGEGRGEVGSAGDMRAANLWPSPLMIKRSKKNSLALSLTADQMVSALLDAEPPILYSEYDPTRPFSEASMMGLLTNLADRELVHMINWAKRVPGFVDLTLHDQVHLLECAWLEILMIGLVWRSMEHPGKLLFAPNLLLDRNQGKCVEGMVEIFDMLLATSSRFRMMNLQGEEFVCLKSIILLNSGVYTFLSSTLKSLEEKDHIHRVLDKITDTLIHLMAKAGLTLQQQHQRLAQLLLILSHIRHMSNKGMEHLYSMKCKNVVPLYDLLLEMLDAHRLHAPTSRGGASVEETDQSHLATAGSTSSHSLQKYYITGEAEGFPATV

Streptokinase A = target: T6, Streptokinase A (Streptococcus pyogenes serotype M1, UniProt P10520); test: viability-normalized secreted streptokinase activity reduction – plasminogen activation absorbance, OD405, dose response (AID 1914); assay type: functional, Streptococcus pyogenes M1 GAS;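 also: secreted streptokinase activity via plasminogen activation per viability signal from cell pellet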
T6 sequence (P10520 whole entry): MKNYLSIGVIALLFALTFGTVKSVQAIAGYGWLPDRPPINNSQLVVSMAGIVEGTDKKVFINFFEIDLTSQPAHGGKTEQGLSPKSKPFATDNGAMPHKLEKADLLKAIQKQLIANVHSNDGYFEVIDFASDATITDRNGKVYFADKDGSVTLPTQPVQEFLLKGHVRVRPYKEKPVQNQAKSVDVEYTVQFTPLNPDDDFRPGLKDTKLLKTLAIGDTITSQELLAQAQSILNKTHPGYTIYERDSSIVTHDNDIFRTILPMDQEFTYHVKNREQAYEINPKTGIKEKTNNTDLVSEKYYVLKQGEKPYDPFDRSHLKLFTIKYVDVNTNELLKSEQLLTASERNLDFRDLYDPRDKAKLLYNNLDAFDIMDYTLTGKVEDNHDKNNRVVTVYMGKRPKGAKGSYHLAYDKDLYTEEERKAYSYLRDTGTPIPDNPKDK

[12] = Luminescence Cell-Based Dose Response HTS to Identify Activators of Luciferase Translation or Activity in H4 […] Cells. [Related pubchem assays: 1829 (Project Summary), 1814 (Primary HTS)]; assay type: functional
[13] = Luminescence Cell-Based Dose Confirmation HTS to Identify Activators of 5'UTR Stem-Loop Driven Alpha-Synuclein mRNA Translation in H4 Neuroglioblastoma Cells. [Related pubchem assays: 1829 (Project Summary), 1814 (Primary HTS)]; assay type: functional
[14] = A High Throughput Confirmatory Assay used to Identify Novel Compounds that Inhibit Mycobacterium Tuberculosis in the absence of Glycerol.; assay type: functional
H4 = test: Luminescence Cell-Based Dose Response HTS to Identify Activators of 5'UTR Stem-Loop Driven Prion Protein mRNA Translation in H4 Neuroglioblastoma Cells. [Related pubchem assays: 1829 (Project Summary), 1814 (Primary HTS)]; assay type: functional; settings: Homo sapiens
Ion channel NompC = Ion channel NompC (Danio rerio, UniProt Q7T1G6); test: Fluorescence counterscreen assay for TRPML3 agonists: dose response cell-based high-throughput screening assay to identify agonists of the transient receptor potential channel N1 (TRPN1). [Related pubchem assays: 1526, 1424, 1448 ]; assay type: functional
Sequence of Ion channel NompC (Q7T1G6 whole entry): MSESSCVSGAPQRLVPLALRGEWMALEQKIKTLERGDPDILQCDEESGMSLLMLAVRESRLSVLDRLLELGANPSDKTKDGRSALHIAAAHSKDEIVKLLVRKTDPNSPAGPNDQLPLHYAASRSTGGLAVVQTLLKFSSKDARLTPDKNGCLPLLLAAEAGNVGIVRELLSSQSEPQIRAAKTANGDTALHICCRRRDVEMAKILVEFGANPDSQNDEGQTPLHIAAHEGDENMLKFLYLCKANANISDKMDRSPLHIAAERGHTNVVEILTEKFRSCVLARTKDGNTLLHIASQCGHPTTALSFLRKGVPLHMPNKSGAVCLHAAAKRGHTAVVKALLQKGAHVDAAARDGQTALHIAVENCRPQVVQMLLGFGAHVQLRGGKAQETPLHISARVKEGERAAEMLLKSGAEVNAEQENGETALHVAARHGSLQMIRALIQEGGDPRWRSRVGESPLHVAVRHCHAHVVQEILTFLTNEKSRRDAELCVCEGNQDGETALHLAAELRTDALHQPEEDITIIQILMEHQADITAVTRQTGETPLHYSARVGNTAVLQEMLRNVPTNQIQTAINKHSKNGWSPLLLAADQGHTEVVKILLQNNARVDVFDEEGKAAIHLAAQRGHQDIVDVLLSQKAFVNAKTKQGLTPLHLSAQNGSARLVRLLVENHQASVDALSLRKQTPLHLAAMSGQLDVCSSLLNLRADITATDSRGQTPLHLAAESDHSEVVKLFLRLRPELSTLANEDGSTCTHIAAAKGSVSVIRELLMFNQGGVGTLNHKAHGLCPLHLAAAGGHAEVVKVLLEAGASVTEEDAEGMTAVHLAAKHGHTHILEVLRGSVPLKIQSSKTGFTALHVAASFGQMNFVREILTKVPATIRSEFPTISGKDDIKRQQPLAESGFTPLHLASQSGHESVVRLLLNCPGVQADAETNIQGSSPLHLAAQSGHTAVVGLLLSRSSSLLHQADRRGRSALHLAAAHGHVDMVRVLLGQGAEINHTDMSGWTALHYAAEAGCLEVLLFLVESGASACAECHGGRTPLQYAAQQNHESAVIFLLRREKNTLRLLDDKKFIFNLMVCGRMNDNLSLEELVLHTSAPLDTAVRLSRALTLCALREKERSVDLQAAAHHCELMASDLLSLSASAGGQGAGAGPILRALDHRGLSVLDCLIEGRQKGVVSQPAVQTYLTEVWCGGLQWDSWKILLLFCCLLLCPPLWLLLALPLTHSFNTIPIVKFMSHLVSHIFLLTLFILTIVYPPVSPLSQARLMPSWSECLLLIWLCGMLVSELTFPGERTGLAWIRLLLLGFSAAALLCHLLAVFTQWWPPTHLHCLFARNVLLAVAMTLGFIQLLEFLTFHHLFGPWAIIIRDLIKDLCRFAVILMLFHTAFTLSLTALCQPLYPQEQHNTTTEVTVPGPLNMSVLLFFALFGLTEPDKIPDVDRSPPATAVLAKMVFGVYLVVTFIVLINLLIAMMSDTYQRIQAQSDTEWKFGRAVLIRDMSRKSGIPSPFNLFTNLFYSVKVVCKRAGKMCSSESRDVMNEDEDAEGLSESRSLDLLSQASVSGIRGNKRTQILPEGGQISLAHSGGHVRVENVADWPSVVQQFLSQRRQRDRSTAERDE

Mucolipin-3 = Mucolipin-3 (Homo sapiens, UniProt Q8TDD5); test: Dose response cell-based high-throughput screening assay for agonists of the transient receptor potential channel ML3 (TRPML3). [Related pubchem assays: 1526, 1424, 1448 ]; assay type: functional
Sequence of Mucolipin-3 (Q8TDD5 whole entry): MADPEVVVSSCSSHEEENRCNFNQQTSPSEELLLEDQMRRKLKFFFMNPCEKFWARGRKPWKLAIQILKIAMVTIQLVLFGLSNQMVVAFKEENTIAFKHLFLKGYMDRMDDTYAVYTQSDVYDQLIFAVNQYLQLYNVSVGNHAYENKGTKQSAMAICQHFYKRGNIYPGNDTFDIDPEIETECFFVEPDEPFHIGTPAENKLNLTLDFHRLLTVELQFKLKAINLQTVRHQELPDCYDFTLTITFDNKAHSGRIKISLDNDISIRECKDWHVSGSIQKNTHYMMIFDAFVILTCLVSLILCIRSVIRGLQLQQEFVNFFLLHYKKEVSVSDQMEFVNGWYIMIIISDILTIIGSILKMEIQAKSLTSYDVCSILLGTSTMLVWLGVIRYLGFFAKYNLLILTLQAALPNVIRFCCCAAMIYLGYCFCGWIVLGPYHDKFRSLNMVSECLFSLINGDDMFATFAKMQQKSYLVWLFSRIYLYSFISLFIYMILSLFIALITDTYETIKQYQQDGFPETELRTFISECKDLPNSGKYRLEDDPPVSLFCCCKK

NADPH oxidase 1 [15] = target: T2, NADPH oxidase 1; assay type: functional, cell-based

Sequence of Procathepsin L (P07711 whole entry): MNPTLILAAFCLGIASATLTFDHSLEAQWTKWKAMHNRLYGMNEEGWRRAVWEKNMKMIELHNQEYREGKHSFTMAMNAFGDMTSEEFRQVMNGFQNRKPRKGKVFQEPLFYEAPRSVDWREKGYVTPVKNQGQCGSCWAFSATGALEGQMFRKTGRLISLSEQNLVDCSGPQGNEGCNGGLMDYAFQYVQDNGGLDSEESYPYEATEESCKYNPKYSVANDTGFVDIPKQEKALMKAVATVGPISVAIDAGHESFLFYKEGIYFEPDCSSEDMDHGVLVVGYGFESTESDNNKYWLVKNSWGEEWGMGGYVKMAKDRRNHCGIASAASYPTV

O=C(O)CCC(=O)N1N=C(c2c(-c3ccccc3)c3cc(Cl)ccc3[nH]c2=O)CC1c1ccccc1 (configuration not stated)
IC50 (Procathepsin L): > 59.6 µM (not active) | IC50 (Aspartyl aminopeptidase): > 73.5 µM (not active) | IC50 (Aminopeptidase N): 4.6 µM (active)

Cc1cc(C(=O)COC(=O)Cn2c(=O)oc3ccccc32)c(C)n1Cc1ccccc1
EC50 [1]: > 30 µM (not active)

COc1ccc(/C=N/Nc2c(Cl)cc(Cl)cc2Cl)cc1
IC50 (NADPH oxidase 1 [2]): > 17 µM (not active)

O=C(C1CCN(Cc2ccc(Cl)cc2)CC1)N1CCN(C(c2ccccc2)c2ccccc2)CC1
IC50 [3]: > 35 µM (not active) | IC50 [4]: > 35 µM (not active)

O=c1c2sc(-c3ccccc3)cc2nc2n1CCC2
EC50 [5]: 8.3 µM (active) | EC50 (HT-1080): > 50 µM (not active) | EC50 [6]: < 200 nM (active) | EC50 [7]: 11.8 µM (inconclusive) | EC50 [8]: > 120 µM (not active)

Oc1nc2ccc(Cl)cc2c(-c2ccccc2)c1N1CCN(c2ccccn2)CC1
EC50 [9]: 5.29 µM (active) | EC50 (Streptococcus): 45.8 µM (active) | EC50 [10]: 8.58 µM (active) | EC50 [11]: 5.29 µM (active)

CC(Oc1ccc(Cl)cc1Cl)C(=O)Nc1ccc2oc(-c3ccncc3)nc2c1 (configuration not stated)
EC50 [9]: 8.75 µM (active) | EC50 (Estrogen receptor): 11.4 µM (active) | EC50 (Streptokinase A): > 150 µM (not active) | EC50 (Streptococcus): 9.54 µM (active)

COc1ccc2c(c1)CC/C(=C\C=C\c1ccccc1OC)C2=O
EC50 [12]: 1.99 µM (active) | EC50 [13]: > 120 µM (not active) | IC50 [14]: > 100 µM (active) | EC50 (H4): 13.8 µM (active)

COC(=O)c1cc(-c2ccc(S(=O)(=O)N3CCCCC3)cc2)c(C(F)(F)F)s1
EC50 (Ion channel NompC): > 29.9 µM (not active) | EC50 (Mucolipin-3): > 29.9 µM (not active)

Oc1ccccc1-c1nc(-c2ccccc2)c(-c2ccccc2)[nH]1
IC50 (NADPH oxidase 1 [15]): > 17 µM (not active)
